Non-standard residues stand in square brackets, D forms with d. Residues, ends and D or L forms follow the SMILES beside them. *: point of attachment. Biotin = O=C1N[C@H]2[C@H](CS[C@H]2CCCCC(=O)*)N1; pS = N[C@@H](COP(=O)(O)O)C(=O)O; Ahx = NCCCCCC(=O)O
Tests used:
[1] = system: Murine bone marrow stromal cell (BMSCs) cultures; assay: Bone marrow stromal cell mineralization assay (alizarin red staining); type: cell-based, mice
Protocol: The epiphyses of the bones from wild type (“WT”) and HYP mice were removed, and whole marrow was flushed from the diaphyses by centrifugation at 11500 rpm for 30 seconds in standard culture medium, which consisted of α-MEM (Mediatech Inc, Herndon Va., USA) supplemented with 10% FBS (Mediatech Inc, Herndon Va., USA), 10 U/ml penicillin/100 ug/ml streptomycin. The supernatant was removed, and the cell pellet was resuspended in fresh standard medium. The resuspended cells were plated in standard 25 cm^2 flasks and allowed to grow until confluence. The cells were passaged with 0.25% trypsin and 0.02% EDTA (Sigma Aldrich, Saint Louis, Mo., USA). Cells were plated on 24-well plastic culture plates at a concentration of 10×10^4 cells/well. Starting 72 hours after seeding (referred to as Day 0) nonadherent cells were discarded, and the medium was changed to one that supports osteoblast differentiation, that is, standard media plus 10 mM B glycerophosphate (Sigma Aldrich, Saint Louis, Mo., USA) and 50 mg/liter ascorbic acid (Sigma Aldrich, Saint Louis, Mo., USA). […] For quantification of staining, 500 μL 10% (v/v) acetic acid was added to each well, and the plate was incubated at room temperature for 30 min. with shaking. […] 150 μL aliquots of the supernatant were read in triplicate at 450 nm in 96-well format using opaque-walled, transparent-bottomed plates.

PHEX = target: T1, PHEX (Homo sapiens, UniProt P78562); assay: Surface plasmon resonance: PHEX analyte binding to immobilized biotinylated ASARM-PO4; conditions: immobilized biotinylated ASARM-PO4, soluble PHEX analyte, FIG. 4(A); read-out: kinetics of binding
T1 sequence (P78562 46-749 limits assumed): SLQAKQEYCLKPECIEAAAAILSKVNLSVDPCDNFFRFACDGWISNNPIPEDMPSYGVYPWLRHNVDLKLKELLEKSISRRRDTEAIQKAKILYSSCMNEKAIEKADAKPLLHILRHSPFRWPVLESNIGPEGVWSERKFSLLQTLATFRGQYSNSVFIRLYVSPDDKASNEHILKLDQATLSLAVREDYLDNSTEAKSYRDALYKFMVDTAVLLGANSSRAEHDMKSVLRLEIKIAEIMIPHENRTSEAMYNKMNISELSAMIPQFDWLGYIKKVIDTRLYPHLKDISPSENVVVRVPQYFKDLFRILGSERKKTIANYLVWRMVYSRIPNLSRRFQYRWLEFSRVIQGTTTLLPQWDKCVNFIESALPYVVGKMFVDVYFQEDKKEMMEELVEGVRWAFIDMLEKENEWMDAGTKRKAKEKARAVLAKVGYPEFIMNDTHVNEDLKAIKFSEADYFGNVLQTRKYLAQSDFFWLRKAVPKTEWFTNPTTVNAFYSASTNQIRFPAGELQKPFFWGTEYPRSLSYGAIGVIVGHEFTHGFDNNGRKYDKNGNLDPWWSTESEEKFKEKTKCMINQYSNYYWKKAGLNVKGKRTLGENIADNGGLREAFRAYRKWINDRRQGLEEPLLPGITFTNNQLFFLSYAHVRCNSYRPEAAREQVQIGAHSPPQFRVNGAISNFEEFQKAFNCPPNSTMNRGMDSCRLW
Protocol: A Biacore 3000 SPR instrument in conjunction with CM5 research grade chips was used to conduct the surface Plasmon Resonance (SPR) experiments (Biacore, Piscataway, N.J.) as previously described (Rowe et al., Bone 36:33-46 (2005)). The experiments were performed at 25° C. using Biacore buffer (10 mM HEPES pH 7.4, 150 mM NaCl, 0.005% surfactant P20) supplemented with 2 mM ZnCl2 (HBS-P-Zn) or without ZnCl2 (HBS-P) as indicated. Samples were injected at a flow rate of 5 ul/min. The surfaces of research grade CM5 chips were activated by a 6-min. injection of a solution containing 0.2 M N-ethyl-N9-(dimethylaminopropyl) carbodiimide and 0.05 M N-hydroxy-succinimide. Neutravidin (Pierce) was then immobilized on the same chip (ligands) in all four flow-cells using amine coupling chemistry. One neutravidin surface was left blank as a negative control. Biotinylated peptides (including biotinylated ASARM-PO4 peptide) were then added and captured on other individual flow-cells. […] The experiments were repeated on two different chips and immobilized peptides measured as surface plasmon response units as previously described (Rowe et al., Bone 36:33-46 (2005)). The response unit or RU is a measure of surface charge density oscillation and surface […] generation as detected by changes in incident refractive index monitored by the Biacore optical unit. […]

For “NH2-LKGDHSGGNGNYTGLDYNIPGYFRSTIPFHGEVDKENVAR-OH (H-LKGDHSGGNGNYTGLDYNIPGYFRSTIPFHGEVDKENVAR-OH; listed as Homo sapiens) [SPR5]”, the “mineralization (alizarin red)” value ([1]; BMSC cultures supplemented with 10 μM peptide alone) was “mineralization occurs with great efficiency”.
In the case of “NH2-RDDSSESSDSGS(PO3H2)SS(PO3H2)ES(PO3H2)DGD-OH (H-RDDSSESSDSG[pS]S[pS]E[pS]DGD-OH; listed as Homo sapiens) [ASARM-PO4]”, the “mineralization (alizarin red)” value ([1]; BMSC cultures supplemented with 5 μM ASARM-PO4 alone) is reported as “marked and statistically significant inhibition of mineralization”.
Work on N=C(N)NCCC[C@H](NC(=O)CCCCCNC(=O)CCCC[C@@H]1SC[C@@H]2NC(=O)N[C@@H]21)C(=O)N[C@@H](CC(=O)O)C(=O)N[C@@H](CC(=O)O)C(=O)N[C@@H](CO)C(=O)N[C@@H](CO)C(=O)N[C@@H](CCC(=O)O)C(=O)N[C@@H](CO)C(=O)N[C@@H](CO)C(=O)N[C@@H](CC(=O)O)C(=O)N[C@@H](CO)C(=O)NCC(=O)N[C@@H](COP(=O)(O)O)C(=O)N[C@@H](CO)C(=O)N[C@@H](COP(=O)(O)O)C(=O)N[C@@H](CCC(=O)O)C(=O)N[C@@H](COP(=O)(O)O)C(=O)N[C@@H](CC(=O)O)C(=O)NCC(=O)N[C@@H](CC(=O)O)C(=O)O [biotinylated-ASARM-PO4] ({Biotin-Ahx}-RDDSSESSDSG[pS]S[pS]E[pS]DGD-OH) yielded a Kd (PHEX) of 0.168 µM.

Source: patent publication US7825217B2, “Polypeptides for bone mineralization” (University of Kansas Medical Center, priority 2006, dated 2010)
